Measured values as given in patent US20100290997A1, “Imaging Agents and Methods” (priority 2006, published 2010).
Where a SMILES comes first, the peptide text is derived from it.

Tests used:
cathepsin B = target: T1, cathepsin B (Homo sapiens, UniProt P07858); assay: Inhibition of biodegradation of L-PG-NIR813 in presence of CB inhibitor II; type: biochemical; conditions: 0.2 unit/mL cathepsin B, 10 μM eq. NIR813
T1 construct: purchased Sigma-Aldrich (St. Louis, Mo.)
Method: L-PG-NIR813 with different loading 8.3% and 10%, CB and CB inhibitor II were dissolved in assay buffer respectively. The reaction mixture (100 μL) in each well was composed of 10 μM L-PG-NIR813 probe and 0.2 units/mL CB. The CB inhibitor II was serially diluted in the assay buffer to obtain concentrations ranging from 240 μM to 77 nM. The microwell assay plate was incubated at 37° C. for 24 hr. At predetermined time intervals, the inhibition of biodegradation was examined using Li-Cor Odyssey imager.

[1] = Determination of relaxivity (T1, T2) at 4.7 Tesla; type: physicochemical; conditions: 4.7T MRI experimental scanner
Method: (§1) Solutions of PG-Benz-DTPA-Gd-IR783 were prepared in water at gadolinium concentrations of 0.005, 0.01, 0.02, 0.04, 0.08, and 0.16 mM. Spin lattice (T1) and spin-spin (T2) relaxivities were measured at 4.7 Tesla on 4.7T Bruker Biospec 47/40USR (City, State) using inversion recovery and mutiecho T2-weight pulse sequences. Relaxivities (R1 or R2 in mM^−1s^−1) were obtained from linear least square determination of the slopes of 1/T1 vs [Gd] or 1/T2 vs [Gd] plots.
as §1, with “PG-DTPA-Gd-NIR813” for “PG-Benz-DTPA-Gd-IR783”, “(Bruker Biospin Corp., Billerica, Mass.)” for “47/40USR (City, State)”

[2] = Fluorescence emission spectra; type: physicochemical; conditions: methanol solution; for emission wavelength (maximum): excited at 766 nm
Method: Analytical high-performance liquid chromatography (HPLC) was carried out on an Agilent 1100 system (Wilmington, Del.) equipped with a Vydac peptide and protein analytic C-18 column (Anaheim, Calif.). Sample was eluted with water and acetonitrile containing 0.1% TFA varying from 10% to 80% over 30 min. Fluorescence intensity was measured by Spex Fluorolog spectrofluorimeter (Jobin Yvon Inc, Edison, N.J.).
The fluorescence emission spectra of the synthesized contrast agent was obtained using a Spex Fluorolog spectrofluorimeter (Horiba Yvon Jobin, N.J.).

## CC(=O)N[C@@H](CC(C)C)C(=O)N[C@H](C(=O)N[C@H](C=O)CCCCN)C(C)C [CB inhibitor, Ac-LVK-CHO] (Ac-Leu-Val-Lys-aldehyde)
Cathepsin B
  inhibition of PG-NIR813 degradation by CB: inhibited by CB inhibitor in a dose-dependent manner

## O=C([O-])CN(CCN(CC(=O)[O-])CC(=O)O)CCN(CC(=O)[O-])CC(=O)O.[Gd+3] [DTPA-Gd]
[1]
  T1 relaxivity (r1): 4.8 mmol⁻¹ s⁻¹

## CC1(C)C(=CC=C2CCCC(C=CC3=[N+](CCCCS(=O)(=O)[O-])c4ccccc4C3(C)C)=C2Cl)N(CCCCS(=O)(=O)[O-])c2ccccc21.[Na+] [IR783]
[2]
  Stokes shift: 32 nm
  excitation wavelength: 766 nm
  emission wavelength (maximum): 798 nm

## CC1(C)C(/C=C/C2=C(Sc3ccc(C(=O)NCCCCCN)cc3)C(=C/C=C3/N(CCCCS(=O)(=O)O)c4ccccc4C3(C)C)/CCC2)=[N+](CCCCS(=O)(=O)O)c2ccccc21 [NIR813, IR-783-S-Ph-CONH(CH2)5NH2]
[2]
  Stokes shift: 47 nm
  excitation wavelength: 766 nm
  emission wavelength (maximum): 813 nm
